In the assay the target is T1, FXR (Homo sapiens, UniProt Q96RI1).
T1 construct: 5 μL of 20 nM FXR-LBD Complete Coregulator buffer G; purchased ThermoFisher PV4833
T1 sequence (Q96RI1 262-486 limits assumed): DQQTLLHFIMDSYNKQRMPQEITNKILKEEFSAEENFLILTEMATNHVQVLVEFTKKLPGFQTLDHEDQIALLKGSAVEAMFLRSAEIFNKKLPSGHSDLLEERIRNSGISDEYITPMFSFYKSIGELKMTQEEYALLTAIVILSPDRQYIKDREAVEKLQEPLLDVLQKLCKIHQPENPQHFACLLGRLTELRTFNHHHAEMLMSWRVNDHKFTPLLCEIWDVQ
As to the kind of experiment: FXR antagonist screening by TR-FRET (LanthaScreen TR-FRET FXR co-activation assay kit). In kind it is biochemical. Conditions: Table 1.1, FXR antagonistic activity; TR-FRET with CDCA; geometric means of at least two independent runs. In outline: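 FXR-LBD (20 nM working solution) mixed with compound, CDCA (200 μM working solution) as agonist, Fluorescein-SRC2-2 and Tb-anti-GST antibody in Coregulator buffer G; 10 h at room temperature. Coactivator recruitment read by TR-FRET, triplicate wells.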
On the technique in general: Time-resolved FRET reads energy transfer from a long-lived donor to a nearby acceptor.

Molecules are shown by their SMILES.

`CCOC(=O)c1oc2ccc(S(=O)(=O)N(CCc3ccccc3)Cc3ccc(C(=O)OC(C)(C)C)cc3)cc2c1C` [Example M4-40, ethyl 3-methyl-5-(N-(4-(tert-butoxycarbonyl)benzyl)-N-phenethylsulfamoyl)benzofuran-2-carboxylate] registered an IC50 of 50 to 100 µM. `CCOC(=O)c1oc2ccc(S(=O)(=O)N(CCc3ccccc3)Cc3ccc(CC(=O)OC)cc3)cc2c1C` [Example M4-41, ethyl 3-methyl-5-(N-(4-(2-methoxy-2-oxoethyl)benzyl)-N-phenethylsulfamoyl)benzofuran-2-carboxylate] had an IC50 of 50 to 100 µM. For `CCOC(=O)c1oc2ccc(S(=O)(=O)N(CCc3ccccc3)Cc3ccc(/C=C/C(=O)OC)cc3)cc2c1C` [Example M4-42, (E)ethyl-3-methyl-5-(N-(4-(3-methoxy-3-oxoprop-1-en-1-yl)benzyl)-N-phenethylsulfamoyl)benzofuran-2-carboxylate] the value was 50 to 100 µM; for `CCOC(=O)c1oc2ccc(S(=O)(=O)N(CCc3ccccc3)Cc3cccc4ccccc34)cc2c1C` [Example M4-43, ethyl 3-methyl-5-(N-(naphthalen-1-ylmethyl)-N-phenethylsulfamoyl)benzofuran-2-carboxylate], 50 to 100 µM; for `CCOC(=O)c1oc2ccc(S(=O)(=O)N(CCc3ccccc3)Cc3cccc4cccnc34)cc2c1C` [Example M4-44, ethyl 3-methyl-5-(N-(quinolin-8-ylmethyl)-N-phenethylsulfamoyl)benzofuran-2-carboxylate], 50 to 100 µM.

On to `CCOC(=O)c1oc2ccc(S(=O)(=O)N(CCc3ccccc3)Cc3ccc4ccccc4c3)cc2c1C` [Example M4-45, ethyl 3-methyl-5-(N-(naphthalen-2-ylmethyl)-N-phenethylsulfamoyl)benzofuran-2-carboxylate], for which the IC50 lay within 50 to 100 µM. In the case of `CCOC(=O)c1oc2ccc(S(=O)(=O)N(CCc3ccccc3)Cc3c(F)cccc3F)cc2c1C` [Example M4-46, ethyl 3-methyl-5-(N-(2,6-difluorobenzyl)-N-phenethylsulfamoyl)benzofuran-2-carboxylate], the concentration for half-maximal inhibition (IC50) fell in the range of 50 to 100 µM.

The compound `CCOC(=O)c1oc2ccc(S(=O)(=O)N(CCc3ccccc3)Cc3c(F)cccc3Cl)cc2c1C` [Example M4-47, ethyl 3-methyl-5-(N-(2-fluoro-6-chlorobenzyl)-N-phenethylsulfamoyl)benzofuran-2-carboxylate] returned an IC50 of 50 to 100 µM. `CCOC(=O)c1oc2ccc(S(=O)(=O)N(CCc3ccccc3)Cc3c(F)cccc3C(F)(F)F)cc2c1C` [Example M4-48, ethyl 3-methyl-5-(N-(2-fluoro-6-(trifluoromethyl)benzyl)-N-phenethylsulfamoyl)benzofuran-2-carboxylate] showed an IC50 of 50 to 100 µM. For `CCOC(=O)c1oc2ccc(S(=O)(=O)N(CCc3ccccc3)Cc3c(Cl)cccc3Cl)cc2c1C` [Example M4-49, ethyl 3-methyl-5-(N-(2,6-dichlorobenzyl)-N-phenethylsulfamoyl)benzofuran-2-carboxylate] the value was 50 to 100 µM.

The compound `CCOC(=O)c1oc2ccc(S(=O)(=O)N(CCc3ccccc3)Cc3c(C)cccc3C)cc2c1C` [Example M4-50, ethyl 3-methyl-5-(N-(2,6-dimethylbenzyl)-N-phenethylsulfamoyl)benzofuran-2-carboxylate] came in with an IC50 of 50 to 100 µM. With `CCOC(=O)c1oc2ccc(S(=O)(=O)N(CCc3ccccc3)Cc3ccc(F)cc3F)cc2c1C` [Example M4-51, ethyl 3-methyl-5-(N-(2,4-difluorobenzyl)-N-phenethylsulfamoyl)benzofuran-2-carboxylate], the half-inhibitory concentration (IC50) was 50 to 100 µM. `CCOC(=O)c1oc2ccc(S(=O)(=O)N(CCc3ccccc3)Cc3ccc(Cl)cc3F)cc2c1C` [Example M4-52, ethyl 3-methyl-5-(N-(2-fluoro-4-chlorobenzyl)-N-phenethylsulfamoyl)benzofuran-2-carboxylate]: the 50% inhibitory concentration (IC50) was in the range of 50 to 100 µM.

`CCOC(=O)c1oc2ccc(S(=O)(=O)N(CCc3ccccc3)Cc3ccc(Br)cc3F)cc2c1C` [Example M4-53, ethyl 3-methyl-5-(N-(2-fluoro-4-bromobenzyl)-N-phenethylsulfamoyl)benzofuran-2-carboxylate]: the IC50 was 50 to 100 µM. With `CCOC(=O)c1oc2ccc(S(=O)(=O)N(CCc3ccccc3)Cc3ccc(C#N)cc3F)cc2c1C` [Example M4-54, ethyl 3-methyl-5-(N-(2-fluoro-4-cyanobenzyl)-N-phenethylsulfamoyl)benzofuran-2-carboxylate], the IC50 was 50 to 100 µM. `CCOC(=O)c1oc2ccc(S(=O)(=O)N(CCc3ccccc3)Cc3ccc(C(F)(F)F)cc3F)cc2c1C` [Example M4-55, ethyl 3-methyl-5-(N-(2-fluoro-4-(trifluoromethyl)benzyl)-N-phenethylsulfamoyl)benzofuran-2-carboxylate] displayed an IC50 of 50 to 100 µM. As for `CCOC(=O)c1oc2ccc(S(=O)(=O)N(CCc3ccccc3)Cc3ccc(F)cc3Cl)cc2c1C` [Example M4-56, ethyl 3-methyl-5-(N-(2-chloro-4-fluorobenzyl)-N-phenethylsulfamoyl)benzofuran-2-carboxylate], the IC50 was 50 to 100 µM. In turn, `CCOC(=O)c1oc2ccc(S(=O)(=O)N(CCc3ccccc3)Cc3ccc(F)cc3C(F)(F)F)cc2c1C` [Example M4-57, ethyl 3-methyl-5-(N-(2-(trifluoromethyl)-4-fluorobenzyl)-N-phenethylsulfamoyl)benzofuran-2-carboxylate] had an IC50 of 50 to 100 µM. Regarding `CCOC(=O)c1oc2ccc(S(=O)(=O)N(CCc3ccccc3)Cc3ccc(C(F)(F)F)cc3C(F)(F)F)cc2c1C` [Example M4-58, ethyl 3-methyl-5-(N-(2,4-bis(trifluoromethyl)benzyl)-N-phenethylsulfamoyl)benzofuran-2-carboxylate], the IC50 lay within 50 to 100 µM. `CCOC(=O)c1oc2ccc(S(=O)(=O)N(CCc3ccccc3)Cc3ccc(Br)cc3C(F)(F)F)cc2c1C` [Example M4-59, ethyl 3-methyl-5-(N-(2-trifluoromethyl-4-bromobenzyl)-N-phenethylsulfamoyl)benzofuran-2-carboxylate]: the IC50 lay within 50 to 100 µM. Take `CCOC(=O)c1oc2ccc(S(=O)(=O)N(CCc3ccccc3)Cc3ccc(Cl)cc3Cl)cc2c1C` [Example M4-60, ethyl 3-methyl-5-(N-(2,4-dichlorobenzyl)-N-phenethylsulfamoyl)benzofuran-2-carboxylate]: the IC50 fell in the range of 50 to 100 µM. Regarding `CCOC(=O)c1oc2ccc(S(=O)(=O)N(CCc3ccccc3)Cc3cc(F)ccc3C)cc2c1C` [Example M4-61, ethyl 3-methyl-5-(N-(2-methyl-5-fluorobenzyl)-N-phenethylsulfamoyl)benzofuran-2-carboxylate], the IC50 fell in the range of 50 to 100 µM. For `CCOC(=O)c1oc2ccc(S(=O)(=O)N(CCc3ccccc3)Cc3c(F)cc(Cl)cc3F)cc2c1C` [Example M4-62, ethyl 3-methyl-5-(N-(2,6-difluoro-4-chlorobenzyl)-N-phenethylsulfamoyl)benzofuran-2-carboxylate], the IC50 was in the range of 50 to 100 µM. `CCOC(=O)c1oc2ccc(S(=O)(=O)N(CCc3ccccc3)Cc3ccc(-c4ccccc4)cc3)cc2c1C` [Example M4-82] gave an IC50 of 50 to 100 µM. `CCOC(=O)c1oc2ccc(S(=O)(=O)N(CCc3ccccc3)Cc3ccc(-c4ccccc4C#N)cc3)cc2c1C` [Example M4-83, ethyl 3-methyl-5-(N-((2′-cyano-[1,1′-biphenyl]-4-yl)methyl)-N-phenethylsulfamoyl)benzofuran-2-carboxylate]: the IC50 was in the range of 50 to 100 µM. To `CCOC(=O)c1oc2ccc(S(=O)(=O)N(CCc3ccccc3)Cc3ccc(-c4ccccc4C(=O)OC(C)(C)C)cc3)cc2c1C` [Example M4-84, ethyl 3-methyl-5-(N-((2′-(tert-butoxycarbonyl)-[1,1′-biphenyl]-4-yl)methyl)-N-phenethylsulfamoyl)benzofuran-2-carboxylate] belongs 50 to 100 µM.

As to `CCOC(=O)c1oc2ccc(S(=O)(=O)N(CCc3ccccc3)Cc3ccc(C(=O)c4ccccc4)cc3)cc2c1C` [Example M4-85, ethyl 3-methyl-5-(N-(4-benzoylbenzyl)-N-phenethylsulfamoyl)benzofuran-2-carboxylate], the IC50 is 50 to 100 µM. To `CCOC(=O)c1oc2ccc(S(=O)(=O)N(CCc3ccccc3)c3ccccc3)cc2c1C` [Example M8-10] belongs 50 to 100 µM; to `CCOC(=O)c1oc2ccc(S(=O)(=O)N(CCc3ccccc3)c3ccc(Cc4ccccc4)cc3)cc2c1C` [Example M8-11, ethyl 3-methyl-5-(N-(4-benzylphenyl)-N-phenethylsulfamoyl)benzofuran-2-carboxylate], 50 to 100 µM; to `CCOC(=O)c1oc2ccc(S(=O)(=O)N(CCc3ccccc3)c3ccc(Oc4ccccc4)cc3)cc2c1C` [Example M8-12, ethyl 3-methyl-5-(N-(4-phenoxyphenyl)-N-phenethylsulfamoyl)benzofuran-2-carboxylate], 50 to 100 µM. In turn, `CCOC(=O)c1oc2ccc(S(=O)(=O)N(CCc3ccccc3)CCc3ccccc3)cc2c1C` [Example M8-13, ethyl 3-methyl-5-(N,N-diphenylethylsulfamoyl)benzofuran-2-carboxylate] had an IC50 of 50 to 100 µM. For `CCOC(=O)c1oc2ccc(S(=O)(=O)N(CCc3ccccc3)c3ccc(N4CCOCC4)cc3)cc2c1C` [Example M8-63, ethyl 3-methyl-5-(N-(4-morpholinophenyl)-N-phenethylsulfamoyl)benzofuran-2-carboxylate] the value was 50 to 100 µM. In turn, `CCOC(=O)c1oc2ccc(S(=O)(=O)N(CCc3ccccc3)c3ccc(N4CCN(C)CC4)cc3)cc2c1C` [Example M8-64, ethyl 3-methyl-5-(N-(4-(4-methylpiperazin-1-yl)phenyl)-N-phenethylsulfamoyl)benzofuran-2-carboxylate] had an IC50 of 50 to 100 µM.

Usually IC50 stands for the concentration needed to halve the response being measured.

For the origin of these results see patent US20240239775A1, “FXR REGULATOR, PREPARATION METHOD THEREFOR, PHARMACEUTICAL COMPOSITION THEREOF AND USE THEREOF” (QINGDAO RUIJI MEDICAL TECHNOLOGY CO., LTD., priority 2021, published 2024).
